According to article PMC8362065, “Easily Available, Amphiphilic Diiron Cyclopentadienyl Complexes Exhibit in Vitro Anticancer Activity in 2D and 3D Human Cancer Cells through Redox Modulation Triggered by CO Release” (Chemistry (Weinheim an Der Bergstrasse, Germany), 2021):
One block for each compound: values may come before it.

Tests used:
[1] = Octanol/water partition coefficient, shake-flask method and UV/Vis
Experimental: Octanol/water partition coefficients (log Pow ). Partition coefficients (P ow; IUPAC: K D partition constant[53]), defined as P ow=corg/caq, where corg and caq are molar concentrations of the selected compound in the organic and aqueous phase, respectively, were determined by the shake‐flask method and UV/Vis measurements.[[16a], [54]] Deionized water and octan‐1‐ol were vigorously stirred for 24 h, to enable saturation of both phases, then separated by centrifugation. A stock solution of the selected Fe compound (ca. 2 mg) was prepared by first adding acetone (50 μL, to help solubilization), followed by water‐saturated octanol (2.5 mL). The solution was diluted with water‐saturated octanol (ca. 1 : 3 v/v ratio, cFe2 ≈10^−4 M, so that 1.5≤A≤2.0 at λ max) and its UV/Vis spectrum was recorded ( A0/org ). An aliquot of the solution (V org=1.2 mL) was transferred into a test tube and octanol‐saturated water (V org=V aq=1.2 mL) was added. The mixture was vigorously stirred for 30 min at 21 °C then centrifuged (RCF 805, 5 min; Hettich EBA 8G). The UV/Vis spectrum of the organic phase was recorded ( Af/org ) and the partition coefficient was calculated as P ow= Af/org /( A0/org g− Af/org ) where A0/org and Af/org are the absorbance in the organic phase before and after partition with the aqueous phase, respectively.[53] For [2B]BF4, [2C]Cl and [3F]CF3SO3 an inverse procedure was followed, starting from a solution of the compound in octanol‐saturated water. The partition coefficient was calculated as P ow=( A0/aq − Af/aq )/ Af/aq where A0/aq and Af/aq are the absorbance in the aqueous phase before and after partition with the organic phase, respectively.

[2] = system: Human breast (MCF‐7) carcinoma cell line; assay: MTT assay, 2D cell culture; type: cell-based; conditions: 72 h
Experimental: (§1) Compounds [2B]BF4, [2C]CF3SO3, [2D]CF3SO3 and [3F]CF3SO3 were dissolved in water while the other compounds were dissolved in the minimum DMSO amount prior to cell culture testing. A calculated amount of the stock drug DMSO solution was added to the cell culture media to reach a final maximum DMSO concentration of 0.5 %, which had no effects on cell viability.
(§2) Cell cultures. Human colon (HCT‐15), pancreatic (PSN‐1) and breast (MCF‐7) carcinoma cell lines along with human melanoma cells (A375) were obtained from American Type Culture Collection (ATCC, Rockville, MD). Embryonic kidney HEK293 cells were obtained from the European Collection of Cell Cultures (ECACC, Salisbury, UK). Human ovarian 2008 cancer cells were kindly provided by Prof. G. Marverti (Dept. of Biomedical Science of Modena University, Italy). MCF‐7 ADR cells were kindly provided by Prof. N. Colabufo (Dept. Pharmacy, University of Bari, Italy). Cell lines were maintained in the logarithmic phase at 37 °C in a 5 % CO2 atmosphere using the following culture media containing 10 % fetal calf serum (Euroclone, Milan, Italy), antibiotics (50 units/mL penicillin and 50 μg/mL streptomycin) and 2 mM L‐glutamine: i) RPMI‐1640 medium (Euroclone, Milan, Italy) for PSN‐1, 2008, HCT‐15, MCF‐7 and MCF‐7 ADR cells; ii) DMEM for A375 and HEK293 cells.
(§3) MTT assay. The growth inhibitory effect towards tumour cells was evaluated by means of MTT assay as previously described.[57] Briefly, 3–8×10^3 cells/well, dependent upon the growth characteristics of the cell line, were seeded in 96‐well microplates in growth medium (100 μL). After 24 h, the medium was removed and replaced with a fresh one containing the compound to be studied at the appropriate concentration. Triplicate cultures were established for each treatment. After 24 or 72 h, each well was treated with 10 μL of a 5 mg/mL MTT saline solution, and following 5 h of incubation, 100 μL of a sodium dodecyl sulfate (SDS) solution in HCl 0.01 M were added. After an overnight incubation, cell growth inhibition was detected by measuring the absorbance of each well at 570 nm using a Bio‐Rad 680 microplate reader. Mean absorbance for each drug dose was expressed as a percentage of the control untreated well absorbance and plotted against drug concentration. IC50 values, the drug concentrations that reduce the mean absorbance at 570 nm to 50 % of those in the untreated control wells, were calculated by the four‐parameter logistic (4‐PL) model. Evaluation was based on means from at least four independent experiments.

[3] = system: Human colon (HCT‐15) carcinoma cell line; assay: MTT assay, 2D cell culture; type: cell-based; conditions: HCT‐15 cells, 72 h
Experimental: as §1, §2, §3

[4] = system: Human ovarian 2008 cancer cells; assay: MTT assay, 2D cell culture; type: cell-based; conditions: 2008 cells, 72 h
Experimental: as §1, §2, §3

[5] = system: Human pancreatic (PSN‐1) carcinoma cell line; assay: MTT assay, 2D cell culture; type: cell-based; conditions: PSN‐1 cells, 72 h, read-out: IC50 (μM)±SD
Experimental: as §1, §2, §3

[6] = system: human melanoma cells (A375); assay: MTT assay, 2D cell culture; type: cell-based; conditions: 72 h
Experimental: as §1, §2, §3

[7] = system: Embryonic kidney HEK293 cells; assay: MTT assay, noncancerous cell line; type: cell-based, human; conditions: 72 h
Experimental: As one of the main drawbacks of chemotherapeutics is the toxic effect toward noncancerous cells, we measured the cytotoxicity of tested complexes against a noncancerous cell line (HEK293) and calculated the selectivity index (SI, defined as the ratio between the IC50 value in noncancerous cells and the corresponding average IC50 value related to cancer cells; Table 5).
as §1, §2, §3

[8] = system: 3D cell spheroids of human ovarian (2008) cancer cells; assay: Acid phosphatase (APH) assay, 3D spheroid culture; type: cell-based; conditions: 2008 spheroids, 72 h, APH test
Text: (§4) The remarkable cell‐killing effect observed in 2D cultured cells prompted us to evaluate the in vitro antitumor activity of the complexes on 3D cell cultures. Differently from 2D monolayer culture, 3D spheroid cell culture systems comprise cancer cells in various cell growth stages. Consequently, the multicellular cancer spheroid model is recognized to better reflect the tumour mass in vivo regarding drug permeation, cell interactions, gene expression, hypoxia and nutrient gradients with respect to monolayer cell cultures, making 3D models more predictive than conventional 2D monolayer cultures in screening antitumor drugs.[38] Table 6 summarizes the IC50 values obtained after treatment of 3D cell spheroids of human ovarian (2008) and pancreatic (PSN‐1) cancer cells with the diiron complexes and cisplatin.
(§5) Spheroid cultures. Spheroid cultures were obtained by seeding 2.5×10^3 cells/well in round bottom non‐tissue culture treated 96 well‐plate (Greiner Bio‐one, Kremsmünster, Austria) in phenol red free RPMI‐1640 medium (Sigma Chemical Co.), containing 10 % FCS and supplemented with 20 % methyl cellulose stock solution.
(§6) Acid phosphatase (APH) assay. An APH modified assay was used for determining cell viability in 3D spheroids, as previously described.[58] IC50 values were calculated with a four‐parameter logistic (4‐PL) model. All the values are the means ± SD of not less than four independent experiments.

[9] = system: 3D cell spheroids of human pancreatic (PSN‐1) cancer cells; assay: Acid phosphatase (APH) assay, 3D spheroid culture; type: cell-based; conditions: PSN‐1 spheroids, 72 h, APH test
Text: as §4, §5, §6

[10] = system: 3D cell spheroids of human ovarian (2008) cancer cells; assay: Acid phosphatase (APH) assay, 3D spheroid culture; type: cell-based; conditions: 2008 cell line
MCF‐7 ADR cells = assay: MTT assay, multidrug-resistant cancer cell model overexpressing P-gp; type: cell-based, human
Experimental: The antiproliferative activity was also investigated in a multidrug‐resistant cancer cell model overexpressing P‐gp (MCF‐7 ADR cells).
as §1, §2, §3

[11] = Solubility pattern of the isolated compound (qualitative); type: physicochemical; conditions: isolated solid
[12] = Stability in D2O, D2O/CD3OD and DMSO-d6/D2O at 37 °C by 1H NMR; type: physicochemical; conditions: D2O
Experimental: A detailed study on the behaviour of a selection of the diiron complexes in aqueous media was undertaken. Experimental procedures are provided in the Experimental Section and in the Supporting Information, with data collected in Tables 3, S3 and S4. […] The octanol/water partition coefficients (log P ow) were measured by a UV/Vis method and fall in between 0 and −1, reflecting an amphiphilic or slightly hydrophilic character. […] Conversely, those complexes with aromatic groups (i. e., 1H‐indol‐6‐yl, 2‐naphthyl and bis‐benzyl in [2A]^+, [3G]^+, [4G]^+ and [5H]^+) are less soluble in water and display increased affinity for n‐octanol (log P ow≈0). The diiron compounds are inert in aqueous solution at room temperature, and undergo a slow degradation at 37 °C. Under such conditions, a variable amount (50 to 86 %; Table S3) of the starting material was detected by ^1H NMR in D2O or D2O/CD3OD mixtures after 72 h.[33] During this time, the precipitation of a brown solid was observed, which in one case (from a [2C]CF3SO3 solution) was separated and identified as γ‐Fe2O3 by Raman analysis. In addition, headspace GC analyses performed on 5 % MeOH aqueous solutions of the compounds maintained at 37 °C allowed the identification and quantitation of the carbon monoxide released over a 48 h period (Table S4). These facts indicate that the thermal degradation process in aqueous solution leads to the progressive disassembly of the organometallic scaffold.[16] The presumed, controlled release of the iron centres (converted to iron oxide, see above) and carbon monoxide are two aspects that deserve attention with reference to the biological activity: note that the decay of ferrocene drug candidates into Fe^II ions was previously associated to their cytotoxicity,[34] while the activity of various iron carbonyl complexes was correlated to CO dissociation in the physiological media.[35]
(§7) Stability in water (D2O) and cell culture medium. The procedures are described in the Supporting Information, and data are collected in Table S3.
(§8) Table S3. Stability of diiron complexes in D2O, D2O/CD3OD, DMSO-d6/D2O and cell culture medium (DMEM-
(§9) d/CD3OD) solution at 37 °C calculated by 1H NMR (Me2SO2 internal standard).
(§10) % starting material (72 h) % starting material
(§11) Compound D O D O/CD OD DMSO-d /D O DMEM-d
(§12) [a] X = I for the stability in D 2O, X = CF3SO3 for the stability in cell culture medium. [b] Stability in D 2O and […]

[13] = Stability in cell culture medium (DMEM) at 37 °C by 1H NMR; type: physicochemical; conditions: DMEM-d (6.6 % CD3OD)
Experimental: Next, the stability of the diiron compounds in a cell culture medium (DMEM) solution at 37 °C, over a shorter time range (24 h), was assessed by ^1H NMR.
as §7, §8, §9, §10, §11, §12

Compound: O=C1C=CC(=O)c2ccccc21 [Naphthoquinone, reference compound]
- logP at 30 min [1]: 1.8 ± 0.2

Compound: N.N.[Cl][Pt][Cl] [cisplatin, reference compound]
- IC50 ([2]; MCF‐7 cells): 8.8 ± 0.2 µM
- IC50 [3]: 16.5 ± 2.2 µM
- IC50 [4]: 2.2 ± 1.4 µM
- IC50 [5]: 12.1 ± 2.9 µM
- IC50 [6]: 2.1 ± 0.3 µM
- IC50 ([7]; HEK293 noncancerous cells, MTT): 18.1 ± 3.6 µM
- SI (selectivity index) ([7]; IC50 in noncancerous HEK293 cells / average IC50 in cancer cells): 2.2
- IC50 [8]: 57.6 ± 3.6 µM
- IC50 [9]: 61.7 ± 12.1 µM
- IC50 ratio related to 3D and 2D experiments [10]: 26

Compound: [Fe2Cp2(CO)2(μ‐CO){μ‐CNMe(2‐naphthyl)}]I [[3G]I]
- Solubility in water (qualitative) [11]: sparingly soluble

Compound: [Fe2Cp2(CO)2(μ‐CO){μ‐CNMe(C6H11)}]X [[2C]Cl]
- Log P ow ([1]; octanol/water, 21 °C): −1.1±0.08
- % starting material (72 h) [12]: 79%
- % starting material (24 h) [13]: 88%

Next, values leading:

- IC50 ([2]; Homo sapiens, MCF7, MCF‐7 cells): 0.2 ± 0.03 µM
- IC50 (MCF‐7 ADR cells; Homo sapiens, NCI/ADR-RES, MCF‐7 ADR cells, 72 h, MTT): 7.8 ± 2.2 µM
- RF=IC50 (resistant cells)/IC50 (wild‐type cells) (MCF‐7 ADR cells; MCF‐7 ADR vs MCF‐7, 72 h): 39
Compound: COc1cccc2c1C(=O)c1c(O)c3c(c(O)c1C2=O)C[C@@](O)(C(=O)CO)C[C@@H]3O[C@H]1C[C@H](N)[C@H](O)[C@H](C)O1 [doxorubicin, reference compound]

- Solubility in water (qualitative) [11]: poorly soluble
Compound: [Fe2Cp2(CO)2(μ‐CO){μ‐CNMe(CH2CHCH2)}]X [[3F]I]

- % starting material (72 h) [12]: 60%
- % starting material (24 h) [13]: 84%
Compound: [Fe2Cp2(CO)2(μ‐CO){μ‐CNMe(CH2CHCH2)}]X [[3F]X]

- IC50±SD (μM) [8]: ineffective
- IC50±SD (μM) [9]: ineffective
Compound: [Fe2Cp2(CO)2(μ‐CO){μ‐CNMe(CH2PO3Et2)}]X [[2B]CF3SO3]
